# Measurements: patent publication US20250230193A1, “CYCLIC COMPOUND HAVING SELECTIVE KRAS INHIBITORY EFFECT ON HRAS AND NRAS” (CHUGAI SEIYAKU KABUSHIKI KAISHA, priority 2022, published 2025)
# Legend:
# [1] = biological target: GDP-bound NRAS wild-type protein (Homo sapiens, UniProt P01111); experiment: Binding to NRAS by surface plasmon resonance (SPR), Single Cycle Kinetics; conditions: KD ratio NRAS/KRAS, SPR
# [2] = biological target: GDP-bound HRAS wild-type protein (Homo sapiens, UniProt P01112); experiment: Binding to HRAS by surface plasmon resonance (SPR), Single Cycle Kinetics; conditions: KD ratio HRAS/KRAS, SPR
# Chain of GDP-bound HRAS wild-type protein (P01112 whole entry): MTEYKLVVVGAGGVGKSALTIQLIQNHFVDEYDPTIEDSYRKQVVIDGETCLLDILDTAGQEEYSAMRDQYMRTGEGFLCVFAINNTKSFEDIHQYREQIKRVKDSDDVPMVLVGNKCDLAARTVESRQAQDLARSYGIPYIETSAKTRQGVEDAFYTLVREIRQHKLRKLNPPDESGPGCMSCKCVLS
# Chain of GDP-bound NRAS wild-type protein (P01111 whole entry): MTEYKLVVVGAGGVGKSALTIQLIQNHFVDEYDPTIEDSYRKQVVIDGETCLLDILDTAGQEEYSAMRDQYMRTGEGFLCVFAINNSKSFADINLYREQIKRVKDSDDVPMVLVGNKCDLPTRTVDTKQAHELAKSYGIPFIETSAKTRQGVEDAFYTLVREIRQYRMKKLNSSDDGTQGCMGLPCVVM
SMILES,NRAS/KRAS (ratio of KD value with respect to GDP-bound NRAS wild-type protein to KD value with respect to KRAS) [1],HRAS/KRAS (ratio of KD value with respect to GDP-bound HRAS wild-type protein to KD value with respect to KRAS) [2]
CCC[C@H]1C(=O)N[C@@H]([C@@H](C)CC)C(=O)N(C)CC(=O)N(C)[C@H]2CCCCN(C2=O)[C@@H](Cc2ccc(C(F)(F)F)cc2)C(=O)N(C)CC(=O)N[C@@H](CCc2cc(F)c(C(F)(F)F)c(F)c2)C(=O)N2C[C@H](OCC)C[C@H]2C(=O)NC2(CCC2)C(=O)N(C)[C@@H](C2CCCC2)C(=O)N(C)[C@H](C(=O)N(C)C)CC(=O)N1C [PP0694],C (A compound having a KD ratio of 0.1 or more and less than 3 is denoted as C),C (A compound having a KD ratio of 0.1 or more and less than 3 is denoted as C)
C=CC[C@H]1C(=O)N[C@@H]([C@@H](C)CC)C(=O)N(C)CC(=O)N(C)[C@H]2CCCCN(C2=O)[C@@H](Cc2ccc(C(F)(F)F)cc2)C(=O)N(C)CC(=O)N[C@@H](CCc2cc(F)c(C(F)(F)F)c(F)c2)C(=O)N2C[C@H](OCC)C[C@H]2C(=O)NC2(CCC2)C(=O)N(C)[C@@H](C2CCCC2)C(=O)N(C)[C@H](C(=O)N(C)C)CC(=O)N1C [PP0695],C (A compound having a KD ratio of 0.1 or more and less than 3 is denoted as C),C (A compound having a KD ratio of 0.1 or more and less than 3 is denoted as C)
C#CC[C@H]1C(=O)N[C@@H]([C@@H](C)CC)C(=O)N(C)CC(=O)N(C)[C@H]2CCCCN(C2=O)[C@@H](Cc2ccc(C(F)(F)F)cc2)C(=O)N(C)CC(=O)N[C@@H](CCc2cc(F)c(C(F)(F)F)c(F)c2)C(=O)N2C[C@H](OCC)C[C@H]2C(=O)NC2(CCC2)C(=O)N(C)[C@@H](C2CCCC2)C(=O)N(C)[C@H](C(=O)N(C)C)CC(=O)N1C [PP0696],B (a compound having 3 or more and less than 10 is denoted as B),B (a compound having 3 or more and less than 10 is denoted as B)
CCO[C@@H]1C[C@H]2C(=O)NC3(CCC3)C(=O)N(C)[C@@H](C3CCCC3)C(=O)N(C)[C@H](C(=O)N(C)C)CC(=O)N(C)[C@@H](CC3CC3)C(=O)N[C@@H]([C@@H](C)CC)C(=O)N(C)CC(=O)N(C)[C@H]3CCCCN(C3=O)[C@@H](Cc3ccc(C(F)(F)F)cc3)C(=O)N(C)CC(=O)N[C@@H](CCc3cc(F)c(C(F)(F)F)c(F)c3)C(=O)N2C1 [PP0697],C (A compound having a KD ratio of 0.1 or more and less than 3 is denoted as C),C (A compound having a KD ratio of 0.1 or more and less than 3 is denoted as C)
CCO[C@@H]1C[C@H]2C(=O)NC3(CCC3)C(=O)N(C)[C@@H](C3CCCC3)C(=O)N(C)[C@H](C(=O)N(C)C)CC(=O)N(C)[C@@H](CC3CCC3)C(=O)N[C@@H]([C@@H](C)CC)C(=O)N(C)CC(=O)N(C)[C@H]3CCCCN(C3=O)[C@@H](Cc3ccc(C(F)(F)F)cc3)C(=O)N(C)CC(=O)N[C@@H](CCc3cc(F)c(C(F)(F)F)c(F)c3)C(=O)N2C1 [PP0698],C (A compound having a KD ratio of 0.1 or more and less than 3 is denoted as C),C (A compound having a KD ratio of 0.1 or more and less than 3 is denoted as C)
CCO[C@@H]1C[C@H]2C(=O)NC3(CCC3)C(=O)N(C)[C@@H](C3CCCC3)C(=O)N(C)[C@H](C(=O)N(C)C)CC(=O)N(C)[C@@H](CC(C)(C)C)C(=O)N[C@@H]([C@@H](C)CC)C(=O)N(C)CC(=O)N(C)[C@H]3CCCCN(C3=O)[C@@H](Cc3ccc(C(F)(F)F)cc3)C(=O)N(C)CC(=O)N[C@@H](CCc3cc(F)c(C(F)(F)F)c(F)c3)C(=O)N2C1 [PP0699],C (A compound having a KD ratio of 0.1 or more and less than 3 is denoted as C),C (A compound having a KD ratio of 0.1 or more and less than 3 is denoted as C)
CCO[C@@H]1C[C@H]2C(=O)NC3(CCC3)C(=O)N(C)[C@@H](C3CCCC3)C(=O)N(C)[C@H](C(=O)N(C)C)CC(=O)N(C)[C@@H](CC3CCCC3)C(=O)N[C@@H]([C@@H](C)CC)C(=O)N(C)CC(=O)N(C)[C@H]3CCCCN(C3=O)[C@@H](Cc3ccc(C(F)(F)F)cc3)C(=O)N(C)CC(=O)N[C@@H](CCc3cc(F)c(C(F)(F)F)c(F)c3)C(=O)N2C1 [PP0700],C (A compound having a KD ratio of 0.1 or more and less than 3 is denoted as C),B (a compound having 3 or more and less than 10 is denoted as B)
CCO[C@@H]1C[C@H]2C(=O)NC3(CCC3)C(=O)N(C)[C@@H](C3CCCC3)C(=O)N(C)[C@H](C(=O)N(C)C)CC(=O)N(C)[C@@H](CC3CCCCC3)C(=O)N[C@@H]([C@@H](C)CC)C(=O)N(C)CC(=O)N(C)[C@H]3CCCCN(C3=O)[C@@H](Cc3ccc(C(F)(F)F)cc3)C(=O)N(C)CC(=O)N[C@@H](CCc3cc(F)c(C(F)(F)F)c(F)c3)C(=O)N2C1 [PP0701],C (A compound having a KD ratio of 0.1 or more and less than 3 is denoted as C),B (a compound having 3 or more and less than 10 is denoted as B)
CCO[C@@H]1C[C@H]2C(=O)NC3(CCC3)C(=O)N(C)[C@@H](C3CCCC3)C(=O)N(C)[C@H](C(=O)N(C)C)CC(=O)N(C)[C@@H](Cc3cccnc3)C(=O)N[C@@H]([C@@H](C)CC)C(=O)N(C)CC(=O)N(C)[C@H]3CCCCN(C3=O)[C@@H](Cc3ccc(C(F)(F)F)cc3)C(=O)N(C)CC(=O)N[C@@H](CCc3cc(F)c(C(F)(F)F)c(F)c3)C(=O)N2C1 [PP0703],C (A compound having a KD ratio of 0.1 or more and less than 3 is denoted as C),B (a compound having 3 or more and less than 10 is denoted as B)
CCO[C@@H]1C[C@H]2C(=O)NC3(CCC3)C(=O)N(C)[C@@H](C3CCCC3)C(=O)N(C)[C@H](C(=O)N(C)C)CC(=O)N(C)[C@@H](COC)C(=O)N[C@@H]([C@@H](C)CC)C(=O)N(C)CC(=O)N(C)[C@H]3CCCCN(C3=O)[C@@H](Cc3ccc(C(F)(F)F)cc3)C(=O)N(C)CC(=O)N[C@@H](CCc3cc(F)c(C(F)(F)F)c(F)c3)C(=O)N2C1 [PP0704],C (A compound having a KD ratio of 0.1 or more and less than 3 is denoted as C),C (A compound having a KD ratio of 0.1 or more and less than 3 is denoted as C)
CCO[C@@H]1C[C@H]2C(=O)NC3(CCC3)C(=O)N(C)[C@@H](C3CCCC3)C(=O)N(C)[C@H](C(=O)N(C)C)CC(=O)N(C)[C@@H](CCOC)C(=O)N[C@@H]([C@@H](C)CC)C(=O)N(C)CC(=O)N(C)[C@H]3CCCCN(C3=O)[C@@H](Cc3ccc(C(F)(F)F)cc3)C(=O)N(C)CC(=O)N[C@@H](CCc3cc(F)c(C(F)(F)F)c(F)c3)C(=O)N2C1 [PP0705],C (A compound having a KD ratio of 0.1 or more and less than 3 is denoted as C),C (A compound having a KD ratio of 0.1 or more and less than 3 is denoted as C)
CCO[C@@H]1C[C@H]2C(=O)NC3(CCC3)C(=O)N(C)[C@@H](C3CCCC3)C(=O)N(C)[C@H](C(=O)N(C)C)CC(=O)N(C)C[C@@H](C)C(=O)N[C@@H]([C@@H](C)CC)C(=O)N(C)CC(=O)N(C)[C@H]3CCCCN(C3=O)[C@@H](Cc3ccc(C(F)(F)F)cc3)C(=O)N(C)CC(=O)N[C@@H](CCc3cc(F)c(C(F)(F)F)c(F)c3)C(=O)N2C1 [PP0706],B (a compound having 3 or more and less than 10 is denoted as B),B (a compound having 3 or more and less than 10 is denoted as B)
CCO[C@@H]1C[C@H]2C(=O)NC3(CCC3)C(=O)N(C)[C@@H](C3CCCC3)C(=O)N(C)[C@H](C(=O)N3CCOCC3)CC(=O)N(C)[C@@H](CC)C(=O)N[C@@H]([C@@H](C)CC)C(=O)N(C)CC(=O)N(C)[C@H]3CCCCN(C3=O)[C@@H](Cc3ccc(C(F)(F)F)cc3)C(=O)N(C)CC(=O)N[C@@H](CCc3cc(F)c(C(F)(F)F)c(F)c3)C(=O)N2C1 [PP0708],B (a compound having 3 or more and less than 10 is denoted as B),B (a compound having 3 or more and less than 10 is denoted as B)
CCC[C@H]1C(=O)N[C@@H]([C@@H](C)CC)C(=O)N(C)CC(=O)N(C)[C@H]2CCCCN(C2=O)[C@@H](Cc2ccc(C(F)(F)F)cc2)C(=O)N(C)CC(=O)N[C@@H](CCc2cc(F)c(C(F)(F)F)c(F)c2)C(=O)N2C[C@H](OCC)C[C@H]2C(=O)NC2(CCC2)C(=O)N(C)[C@@H](C2CCCC2)C(=O)N(C)[C@H](C(=O)N2CCOCC2)CC(=O)N1C [PP0709],C (A compound having a KD ratio of 0.1 or more and less than 3 is denoted as C),B (a compound having 3 or more and less than 10 is denoted as B)
C=CC[C@H]1C(=O)N[C@@H]([C@@H](C)CC)C(=O)N(C)CC(=O)N(C)[C@H]2CCCCN(C2=O)[C@@H](Cc2ccc(C(F)(F)F)cc2)C(=O)N(C)CC(=O)N[C@@H](CCc2cc(F)c(C(F)(F)F)c(F)c2)C(=O)N2C[C@H](OCC)C[C@H]2C(=O)NC2(CCC2)C(=O)N(C)[C@@H](C2CCCC2)C(=O)N(C)[C@H](C(=O)N2CCOCC2)CC(=O)N1C [PP0710],C (A compound having a KD ratio of 0.1 or more and less than 3 is denoted as C),B (a compound having 3 or more and less than 10 is denoted as B)
